Source: ChEMBL document CHEMBL3870307, “5-HT7 receptor modulators: Amino groups attached to biphenyl scaffold determine functional activity” (Eur J Med Chem, 2016)
pEC50, pIC50, pKi: −log10 of the molar value. Calls of active or inactive are those of the source. No cut-off for these calls is given here.

Tests used:
[1] = target: T1, 5-hydroxytryptamine receptor 7 (Homo sapiens, UniProt P34969); experiment: Displacement of [3H]D-lysergic acid diethylamide from 5HT7R (unknown origin) expressed in HEK293 cell membranes incubated for 1.5 hrs in absence of light by liquid scintillation counting
T1 sequence (P34969 whole entry): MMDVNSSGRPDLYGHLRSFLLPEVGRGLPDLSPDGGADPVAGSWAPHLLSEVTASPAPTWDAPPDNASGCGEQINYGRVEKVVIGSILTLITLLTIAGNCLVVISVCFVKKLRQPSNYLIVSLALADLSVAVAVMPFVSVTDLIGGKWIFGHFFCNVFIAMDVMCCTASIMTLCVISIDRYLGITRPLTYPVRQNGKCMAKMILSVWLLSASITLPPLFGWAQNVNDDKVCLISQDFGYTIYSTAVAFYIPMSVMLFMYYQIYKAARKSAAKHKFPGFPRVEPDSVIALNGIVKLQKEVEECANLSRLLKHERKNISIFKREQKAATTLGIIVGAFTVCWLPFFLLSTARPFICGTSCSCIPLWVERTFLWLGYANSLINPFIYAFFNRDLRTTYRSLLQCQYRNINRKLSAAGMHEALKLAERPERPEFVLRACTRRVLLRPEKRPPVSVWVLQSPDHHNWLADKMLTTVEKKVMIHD

[2] = target: T1, 5-hydroxytryptamine receptor 7; experiment: Agonist activity at human 5-HT7R expressed in HEK293 cells assessed as induction of cAMP levels at 10 uM treated for 10 mins measured after 30 mins by D2-dye based fluorescence assay relative to serotonin; type: functional, cell-based
[3] = target: T1, 5-hydroxytryptamine receptor 7; experiment: Antagonist activity at human 5-HT7R expressed in HEK293 cells assessed as inhibition of serotonin stimulated cAMP levels at 10 uM preincubated for 10 mins followed by serotonin stimulation after 30 mins by D2-dye based fluorescence assay; type: functional, cell-based
[4] = target: T1, 5-hydroxytryptamine receptor 7; experiment: Agonist activity at human 5-HT7R expressed in HEK293 cells assessed as induction of cAMP levels treated for 10 mins measured after 30 mins by D2-dye based fluorescence assay; type: functional, cell-based
[5] = target: T1, 5-hydroxytryptamine receptor 7; experiment: Antagonist activity at human 5-HT7R expressed in HEK293 cells assessed as inhibition of serotonin stimulated-cAMP levels preincubated for 10 mins followed by serotonin stimulation after 30 mins by D2-dye based fluorescence assay; type: functional, cell-based
[6] = target: T1, 5-hydroxytryptamine receptor 7; experiment: Antagonist activity at human 5-HT7R expressed in HEK293 cells assessed as inhibition of serotonin stimulated-cAMP levels at 100 uM preincubated for 10 mins followed by serotonin stimulation after 30 mins by D2-dye based fluorescence assay; type: functional, cell-based
[7] = target: T1, 5-hydroxytryptamine receptor 7; experiment: Displacement of [3H]D-lysergic acid diethylamide from 5HT7R (unknown origin) expressed in CHO-K1 cell membranes incubated for 1.5 hrs in absence of light by liquid scintillation counting

| Structure (SMILES) | pKi [1] | Emax [2] | Imax [3] | pEC50 [4] | pIC50 [5] | inhibition [6] | pKi [7] |
| --- | --- | --- | --- | --- | --- | --- | --- |
| COc1ccccc1-c1cccc(CN2CCC(C)CC2)c1 | 5.98 | 8.59% | 39% |  |  |  |  |
| COc1ccccc1-c1cc(CN2CCC(C)CC2)cc2c1OCO2 | 6.16 | 7.6% | 15.6% |  |  |  |  |
| COc1ccccc1-c1cc(CN2CCC(C)CC2)ccc1C | 5.95 | 2.53% | 29% |  |  |  |  |
| COc1ccccc1-c1cc(CN2CCC(C)CC2)ccc1OC | 5.51 | -1.14% | 7.74% |  |  |  |  |
| CNCc1ccc(OC)c(-c2ccccc2OC)c1 | 6.19 | 11% | 2.25% |  |  |  |  |
| COc1ccccc1-c1cccc(CN2CCN(c3ccccc3OC)CC2)c1 |  |  |  |  |  |  | 7.82 |
| COc1ccccc1-c1cc(CN(C)C)cc2c1OCO2 | 6.11 | 3.97% | 13.5% |  |  |  |  |
| CNCc1cc2c(c(-c3ccccc3OC)c1)OCO2 | 5.83 | 13.6% | 8.4% |  |  |  |  |
| COc1ccccc1-c1cc(CN2CCN(c3ccccc3OC)CC2)ccc1C | 7.74 | 14% | 69.3% |  | 5.20 | Active |  |
| CC1CCN(CC[C@H]2CCCN2S(=O)(=O)c2cccc(O)c2)CC1 |  |  | 100% |  |  |  |  |
| COc1ccccc1-c1cc(CN(C)C)ccc1OC | 5.99 | 28.8% | 4.54% |  |  |  |  |

The remaining compounds from weak to strong by pKi [1], led by results:

| pKi [1] | Emax [2] | Imax [3] | pEC50 [4] | pIC50 [5] | inhibition [6] | Structure (SMILES) | pKi [7] |
| --- | --- | --- | --- | --- | --- | --- | --- |
| 6.41 | -14.4% | 52.3% |  |  |  | COc1ccccc1-c1cc(CN2CCC(C)CC2)ccc1Cl |  |
| 6.65 | 24.5% | -0.87% |  |  |  | CNCc1cccc(-c2ccccc2OC)c1 |  |
| 6.90 | 15.4% | 40.8% |  |  |  | COc1ccccc1-c1cccc(CN(C)C)c1 |  |
| 7.10 | -2.42% | 91.6% |  | 5.25 | Active | COc1ccccc1-c1cc(CN2CCN(c3ccccc3OC)CC2)ccc1OC |  |
| 7.14 | -7.72% | 91% |  | 4.64 | Active | COc1ccccc1-c1cc(CN2CCN(c3ccccc3OC)CC2)ccc1Cl |  |
| 7.47 | -1.56% | 93.7% |  | 4.70 | Active | COc1ccccc1-c1cc(CN2CCN(c3ccccc3OC)CC2)cc2c1OCO2 |  |
| 7.64 | 33.3% | 6.61% |  |  |  | COc1ccccc1-c1cc(CN(C)C)ccc1C |  |
| 7.74 | 27.6% | 10.3% |  |  |  | COc1ccccc1-c1cc(CN(C)C)ccc1Cl |  |
| 7.82 | 55.5% | 2.49% | 5.49 |  |  | CNCc1ccc(C)c(-c2ccccc2OC)c1 |  |
| 8.28 | 66.8% | 4.66% | 6.26 |  |  | CNCc1ccc(Cl)c(-c2ccccc2OC)c1 |  |
